Source: patent US10011571B2, “Preparation method for aromatic heterocyclic compound used as selective JAK3 and/or JAK1 kinase inhibitor and application of aromatic heterocyclic compound” (SHENZHEN CHIPSCREEN BIOSCIENCES, LTD., priority 2014, dated 2018)

How the values were obtained:
HeLa cells = test: Cell growth activity assay (MTS), HeLa cell model; type: cell-based, human; set-up: activity: dose or concentration left out as unconfirmed; conditions: Homo sapiens, HeLa, 72 h, read-out: HeLa % growth rate
Text: (§1) MTS assay is a routine method for cell toxicity detection. The basic principle is based on the capacity of dehydrogenase in the mitochondria of living cells to reduce a novel yellow […] MTS to formazan, so that the amount of living cells is proportional to the amount of formazan product by detecting the absorbance at 490 nm (OD), thereby speculating the amount of living cells according to the OD value, and understanding the capacity of the test compound to inhibit the growth of cells or to kill the cells.
HeLa cell is a human cervical cancer cell line, and belongs to epithelial tumor cell line; HUVEC is a human umbilical vein endothelial cell, and belongs to primary endothelial cell; both types of cells express all subtypes except for JAK3.
The change of JAK kinase activity has no significant influence on other cell types except for the immune cells, and both cell models mentioned above are mainly used to evaluate whether there are any other kinase targets besides JAK kinases or there are nonselective cell toxicities.
In this experiment, a cultured cell model is incubated with the test compounds at different concentrations for a specific duration. The effect of the treatment by the test compound on the growth of cells is detected using MTS assay.
(§2) MTS is performed according to routine procedure in a 96-well plate.
(§3) The model cells are inoculated into each well of the 96-well plate at an appropriate concentration (about 5000 cells/well). After 24 h, the test compounds are added at different concentration gradients (the highest final concentration is 40 μM). A solvent control (DMSO) and a negative control are also performed at the same time. Each experiment is repeated for 3 times. The cells are detected after cultured for another 72 h.
After all culture medium is aspirated out of the well, 100 μL fresh medium and 20 μL pre-formulated mixture of MTS and PMS (in a ratio of 20:1) are added to each well. After incubation at 37° C. for 2 h, it is then detected by a microplate reader (490 nm).
The cell growth inhibitory rate and GI50 of the test compound are calculated as above.
Based on the above method, cytological evaluation is performed to the compounds described herein (for the detection of CTLL-2 cell, the concentration of the test compound is 300 nM; […]).

JAK1 = JAK1 (Homo sapiens (Human), UniProt P23458); test: Z'-LYTE enzymatic activity detection, JAK1; type: biochemical; conditions: test compound 300 nM; for inhibition at 0.3 µM: read-out: JAK1 % inhibitory rate @300 nM
JAK1, sequence (P23458 whole entry): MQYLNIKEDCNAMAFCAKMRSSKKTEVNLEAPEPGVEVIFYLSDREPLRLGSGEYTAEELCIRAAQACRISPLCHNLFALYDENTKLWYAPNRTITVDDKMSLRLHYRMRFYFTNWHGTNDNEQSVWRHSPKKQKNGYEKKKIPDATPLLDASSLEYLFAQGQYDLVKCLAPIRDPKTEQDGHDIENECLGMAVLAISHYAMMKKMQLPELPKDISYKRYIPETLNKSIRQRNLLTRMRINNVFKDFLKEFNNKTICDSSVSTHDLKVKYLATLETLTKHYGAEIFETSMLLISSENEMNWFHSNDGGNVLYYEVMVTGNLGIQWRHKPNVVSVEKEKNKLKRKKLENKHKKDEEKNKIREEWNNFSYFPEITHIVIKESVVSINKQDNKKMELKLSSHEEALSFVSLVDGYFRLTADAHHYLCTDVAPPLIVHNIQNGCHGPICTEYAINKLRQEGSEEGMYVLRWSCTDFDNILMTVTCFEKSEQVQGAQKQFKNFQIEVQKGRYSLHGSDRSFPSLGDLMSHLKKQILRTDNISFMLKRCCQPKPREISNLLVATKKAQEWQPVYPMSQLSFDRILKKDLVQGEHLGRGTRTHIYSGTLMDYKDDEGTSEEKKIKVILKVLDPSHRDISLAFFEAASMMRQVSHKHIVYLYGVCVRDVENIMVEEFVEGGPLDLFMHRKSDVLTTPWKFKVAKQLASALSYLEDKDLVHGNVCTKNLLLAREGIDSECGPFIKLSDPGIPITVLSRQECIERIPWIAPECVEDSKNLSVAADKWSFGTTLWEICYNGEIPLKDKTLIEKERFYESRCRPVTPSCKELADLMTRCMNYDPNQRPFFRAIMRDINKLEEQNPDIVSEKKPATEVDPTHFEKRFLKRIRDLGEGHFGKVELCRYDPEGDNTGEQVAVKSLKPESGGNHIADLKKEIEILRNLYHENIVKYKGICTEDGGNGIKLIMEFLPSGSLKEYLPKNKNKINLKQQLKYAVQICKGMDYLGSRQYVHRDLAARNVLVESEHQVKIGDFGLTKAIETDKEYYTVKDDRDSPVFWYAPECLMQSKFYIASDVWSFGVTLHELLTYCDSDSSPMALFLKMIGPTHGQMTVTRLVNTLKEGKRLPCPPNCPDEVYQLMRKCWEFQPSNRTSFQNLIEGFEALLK
Description: (§4) The basic principle of in vitro enzymatic activity assay is based on the difference between the intensities of fluorescence signals generated at different wavelengths (445 nm and 520 nm) from the phosphorylated substrate and non-phosphorylated substrate, in which the specific fluorescence-labeled substrate is phosphorylated by the kinase. When different test compounds are added, the inhibition of kinase activity is represented as the different degrees of substrate phosphorylation, and thus as the different intensities of fluorescence signal, based on which the inhibitory activity of the compound on the kinase can be calculated. Basic detection principle is illustrated in FIG. 1.
(§5) In an enzymatic inhibitory activity detection, GST-labeled human recombinant JAK kinases, including JAK1/PV4774, JAK2/PV4210, JAK3/PV3855, TYK2/PV4790 and their corresponding specific substrates, including Tyr6 (Z′-LYTE® Kinase Assay Kit-Tyrosine 6 Peptide, JAK1/PV4122), Tyr4 (Z′-LYTE® Kinase Assay Kit-Tyrosine 4 Peptide, JAK2/PV3193), Tyr4 (Z′-LYTE® Kinase Assay Kit-Tyrosine 4 Peptide, JAK3/PV3193), Tyr3 (Z′-LYTE® Kinase Assay Kit-[…], TYK2/PV3192) are used. In all tests, development reagent A (PV3297) was used as the test agent. All materials mentioned above were purchased from Invitrogen.
(§6) (1) Preparation: kinase reaction buffer (working solution) is prepared according to the instruction; a concentration gradient of the test compound is prepared by dilution using the kinase reaction buffer (the highest compound concentration is 10 μM for JAK1, JAK2, and TYK2 detection, and 1 μM for JAK3 detection, respectively).
(§7) (2) 10 μl of reaction system, comprising 2.5 μL test compound, 5 μL kinase reaction buffer and 2.5 μL ATP solution (provided by the kit), is mixed and reaction is performed at room temperature for 1 h.
(§8) (3) Controls, including a solvent control without the test compound, a negative control without ATP and a positive control with the phosphorylated substrate, are tested together with the detection. All tests are carried out in triplicate.
(§9) (4) After the enzymatic reaction, 5 μL pre-formulated development buffer is added, and reaction is performed at room temperature for 1 h. Subsequently, the reaction is terminated by adding 5 μL stop buffer.
(§10) (5) The fluorescence signal in each well is detected by an Ascent Fluoroskan FL reader (Thermo Labsystems) at an excitation wavelength of 400 nm, and emission wavelengths of 445 nm and 520 nm. The proportion of substrate phosphorylation is obtained by reference to the fluorescence signal intensity C445/F520.
(§11) (6) The enzymatic inhibitory rate of the test compound can be calculated based on the following equation: Inhibitory rate (%)=1−the proportion of substrate phosphorylation in the detection well/the proportion of substrate phosphorylation in the solvent control well. The half-inhibitory concentration (IC50) can be calculated using an IC50 calculator based on the inhibitory rates of phosphorylation for the test compounds at different concentration gradients.
(§12) Based on the above method, the compounds described herein are enzymatically evaluated in vitro for JAKs (the concentration of the test compound is 30 nM for JAK3 and JAK2 test, and 300 nM for JAK1 test) using Xeljanz (tofacitinib citrate) as the positive control.

JAK3 = JAK3 (Homo sapiens (Human), UniProt P52333); test: Z'-LYTE enzymatic activity detection, JAK3; type: biochemical; conditions: test compound 30 nM; for inhibition at 0.03 µM: read-out: JAK3 % inhibitory rate @30 nM
JAK3, sequence (P52333 whole entry): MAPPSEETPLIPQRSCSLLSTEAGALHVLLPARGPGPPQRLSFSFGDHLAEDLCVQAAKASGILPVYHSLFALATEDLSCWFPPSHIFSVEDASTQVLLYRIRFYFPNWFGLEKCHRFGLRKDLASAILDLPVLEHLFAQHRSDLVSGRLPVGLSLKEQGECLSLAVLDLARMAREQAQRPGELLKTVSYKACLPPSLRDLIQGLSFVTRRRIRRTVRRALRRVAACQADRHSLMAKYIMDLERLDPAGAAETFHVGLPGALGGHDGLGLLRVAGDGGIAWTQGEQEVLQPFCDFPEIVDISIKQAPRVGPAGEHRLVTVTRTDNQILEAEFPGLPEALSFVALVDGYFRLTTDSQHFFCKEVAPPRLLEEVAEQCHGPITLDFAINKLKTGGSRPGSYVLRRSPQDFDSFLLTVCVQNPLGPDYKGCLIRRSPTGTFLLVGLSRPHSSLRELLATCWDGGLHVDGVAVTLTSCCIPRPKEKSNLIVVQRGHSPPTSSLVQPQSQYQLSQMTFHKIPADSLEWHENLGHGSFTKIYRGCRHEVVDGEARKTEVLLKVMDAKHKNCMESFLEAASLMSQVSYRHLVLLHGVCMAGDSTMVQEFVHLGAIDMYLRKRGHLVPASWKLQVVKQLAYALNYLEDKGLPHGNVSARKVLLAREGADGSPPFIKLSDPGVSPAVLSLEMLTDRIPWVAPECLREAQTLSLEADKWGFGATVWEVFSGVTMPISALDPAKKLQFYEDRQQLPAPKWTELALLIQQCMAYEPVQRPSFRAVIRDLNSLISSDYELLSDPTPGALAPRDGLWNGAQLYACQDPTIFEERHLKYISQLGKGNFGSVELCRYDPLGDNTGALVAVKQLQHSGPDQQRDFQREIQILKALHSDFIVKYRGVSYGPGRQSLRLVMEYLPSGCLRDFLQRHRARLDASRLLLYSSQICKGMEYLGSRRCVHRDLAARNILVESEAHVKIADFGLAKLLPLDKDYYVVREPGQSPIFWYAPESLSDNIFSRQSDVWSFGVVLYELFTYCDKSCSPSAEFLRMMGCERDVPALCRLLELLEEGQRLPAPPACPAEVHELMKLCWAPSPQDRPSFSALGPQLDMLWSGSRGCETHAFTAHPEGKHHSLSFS
Description: as §4, §5, §6, §7, §8, §9, §10, §11, §12

CTLL-2 cells = test: Cell growth activity assay (MTS), CTLL-2 cell model; type: cell-based, mouse; conditions: Mus musculus, CTLL-2, 300 nM, 24 h, read-out: CTLL-2 % growth rate @300 nM
Text: as §1
In this experiment, mouse T-cell line CTLL-2 was used. The proliferation and growth of this cell line strongly depend on IL-2, and it is commonly used to evaluate the active titer of exogenous IL-2. By inhibiting the activity of kinase JAK1/3, the proliferation of CTLL-2 can be inhibited under in vitro culture. The activation and proliferation of T-cell is also important pathological characteristics for various immunological diseases. Thus, this model is also pathologically related.
By comparing the change of absorbance generated by the cells treated by the test compounds using MTS assay, the growth inhibitory activity of the test compounds on the model cells can be realized, and thereby potential inhibitory activity of the compounds on JAK1/3 pathway can be evaluated.
as §2
as §3, with “20,000” for “5000”, “highest” for “highest final”, “of 10” for “is 40”, “24” for “72”
CTLL-2 is a suspended cell. After incubation, 20 μL pre-formulated mixture of MTS and PMS (in a ratio of 20:1) is directly added to each well. After incubation at 37° C. for 2 h, it is then detected by a microplate reader (490 nm).
The effect of the test compound on cell growth is calculated by comparing the change of OD values between the test well and the solvent control well, after subtracting the background of the negative control. For the test compounds at different concentration gradients, the inhibitory rates on the growth of model cells and their half-growth inhibitory concentrations (GI50) are each calculated.
Based on the above method, cytological evaluation is performed to the compounds described herein (for the detection of CTLL-2 cell, the concentration of the test compound is 300 nM; for the detection of HeLa and HUVEC cell, the concentration of the test compound is […]).

JAK2 = JAK2 (Homo sapiens (Human), UniProt O60674); test: Z'-LYTE enzymatic activity detection, JAK2; type: biochemical; conditions: test compound 30 nM; for inhibition at 0.03 µM: read-out: JAK2 % inhibitory rate @30 nM
JAK2, sequence (O60674 whole entry): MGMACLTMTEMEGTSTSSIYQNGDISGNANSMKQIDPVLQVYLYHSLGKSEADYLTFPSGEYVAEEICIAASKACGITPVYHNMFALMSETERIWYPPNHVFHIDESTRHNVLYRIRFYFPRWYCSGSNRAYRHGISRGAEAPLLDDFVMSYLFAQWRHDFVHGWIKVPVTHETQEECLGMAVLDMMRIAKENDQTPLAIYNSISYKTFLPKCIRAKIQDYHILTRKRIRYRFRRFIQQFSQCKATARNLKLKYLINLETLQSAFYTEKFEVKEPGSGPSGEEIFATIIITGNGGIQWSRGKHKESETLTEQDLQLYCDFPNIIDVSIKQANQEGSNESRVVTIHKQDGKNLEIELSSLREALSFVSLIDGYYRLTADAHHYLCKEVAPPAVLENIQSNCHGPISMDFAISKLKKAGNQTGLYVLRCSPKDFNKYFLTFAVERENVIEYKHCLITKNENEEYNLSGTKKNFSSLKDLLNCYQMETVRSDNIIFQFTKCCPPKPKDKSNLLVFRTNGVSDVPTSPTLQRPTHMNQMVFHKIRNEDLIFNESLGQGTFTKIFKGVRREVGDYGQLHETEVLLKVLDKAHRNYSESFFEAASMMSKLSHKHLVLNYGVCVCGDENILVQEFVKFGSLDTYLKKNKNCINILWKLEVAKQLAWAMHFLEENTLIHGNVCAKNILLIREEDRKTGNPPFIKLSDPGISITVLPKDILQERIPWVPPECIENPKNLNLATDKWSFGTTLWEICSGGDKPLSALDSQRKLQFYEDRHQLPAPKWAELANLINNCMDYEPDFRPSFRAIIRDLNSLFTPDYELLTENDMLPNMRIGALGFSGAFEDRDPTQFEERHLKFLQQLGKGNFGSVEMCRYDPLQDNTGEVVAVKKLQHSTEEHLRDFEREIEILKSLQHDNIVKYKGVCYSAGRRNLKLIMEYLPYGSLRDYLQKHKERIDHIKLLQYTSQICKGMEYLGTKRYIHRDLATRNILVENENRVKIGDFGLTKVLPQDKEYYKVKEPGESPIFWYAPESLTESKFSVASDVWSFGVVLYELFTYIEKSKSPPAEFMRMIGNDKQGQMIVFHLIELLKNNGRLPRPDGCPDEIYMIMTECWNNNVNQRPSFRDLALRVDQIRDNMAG
Description: as §4, §5, §6, §7, §8, §9, §10, §11, §12

| inhibition at 0.3 µM (JAK1) [%] | JAK3 RV (ratio between the inhibitory rate of the test compound and that of Xeljanz) (JAK3) | inhibition at 0.03 µM (JAK3) [%] | inhibition at 0.03 µM (JAK2) [%] | JAK1 RV (ratio between the inhibitory rate of the test compound and that of Xeljanz) (JAK1) | JAK2 RV (ratio between the inhibitory rate of the test compound and that of Xeljanz) (JAK2) | Structure (SMILES) | activity (HeLa cells) [%] | activity at 0.3 µM (CTLL-2 cells) [%] |
| --- | --- | --- | --- | --- | --- | --- | --- | --- |
| 0 | 0.79 | 106 | 0 | – | – | C=CC(=O)N(C)c1cc(Nc2ncc(F)c(NCCCNC(=O)c3ccc(C#N)cc3)n2)ccc1F [Example 60, 4-cyano-N-(3-(5-fluoro-2-(4-fluoro-3-(N-methylacrylamido)phenylamino)pyrimidinyl-4-amino)propyl)benzamide] | 94 | 79 |
| 58 | 0.58 | 113 | 0 | 0.34 | – | C=CC(=O)N(C)c1cc(Nc2ncc(Cl)c(NCCCNC(=O)c3ccc(C#N)nc3)n2)ccc1F [Example 44, N-(3-(5-chloro-2-(4-fluoro-3-(N-methylacrylamido)phenylamino)pyrimidinyl-4-amino)propyl)-6-cyanonicotinamide] | 39 | 29 |
| 4 | 0.46 | 89 | 0 | 0.02 | – | C=CC(=O)N(C)c1cc(Nc2ncc(Cl)c(NCCCNC(=O)c3ccc(OC)cc3)n2)ccc1F [Example 40, N-(3-(5-chloro-2-(4-fluoro-3-(N-methylacrylamido)phenylamino)pyrimidinyl-4-amino)propyl)-4-methoxylbenzamide] | 82 | 39 |
| 19 | 0.96 | 80 | 0 | 0.22 | – | C=CC(=O)N(C)c1cc(Nc2ncc(Cl)c(NCCCNC(=O)c3ccc(CC)cc3)n2)ccc1F [Example 79, N-(3-(5-chloro-2-(4-fluoro-3-(N-methylacrylamido)phenylamino)pyrimidinyl-4-amino)propyl)-4-ethylbenzamide] | 78 | 3 |
| 20 | 0.99 | 82 | 0 | 0.24 | – | C=CC(=O)N(C)c1cc(Nc2ncc(Cl)c(NCCCNC(=O)c3cccc(C(F)(F)F)c3)n2)ccc1F [Example 91, N-(3-(5-chloro-2-(4-fluoro-3-(N-methylacrylamido)phenylamino)pyrimidinyl-4-amino)propyl)-3-trifluoromethylbenzamide] | 40 | 2 |
| 74 | 1.04 | 86 | 0 | 0.87 | – | C=CC(=O)N(C)c1cc(Nc2ncc(Cl)c(NCCCNC(=O)c3ccc(C(F)(F)F)c(F)c3)n2)ccc1F [Example 103, N-(3-(5-chloro-2-(4-fluoro-3-(N-methylacrylamido)phenylamino)pyrimidinyl-4-amino)propyl)-3-fluoro-4-trifluoromethylbenzamide] | 55 | 3 |
| 36 | 0.92 | 76 | 2 | 0.42 | 0.04 | C=CC(=O)N(C)c1cc(Nc2ncc(Cl)c(NCCCNC(=O)c3ccc(C)cc3)n2)ccc1F [Example 83, N-(3-(5-chloro-2-(4-fluoro-3-(N-methylacrylamido)phenylamino)pyrimidinyl-4-amino)propyl)-4-methylbenzamide] | 70 | 4 |
| 0 | 0.56 | 109 | 0 | – | – | C=CC(=O)N(C)c1cc(Nc2ncc(Cl)c(NCCCNC(=O)c3ccc(O)cc3)n2)ccc1F [Example 48, N-(3-(5-chloro-2-(4-fluoro-3-(N-methylacrylamido)phenylamino)pyrimidinyl-4-amino)propyl)-4-hydroxybenzamide] | 90 | 50 |
| 13 | 0.78 | 105 | 0 | 0.13 | – | C=CC(=O)N(C)c1cc(Nc2ncc(Cl)c(NCCCNC(=O)Cc3ccc(C#N)cc3)n2)ccc1F [Example 64, N-(5-(5-chloro-4-(3-(2-(4-cyanophenyl)acetamino)propylamino)pyrimidinyl-2-amino)-2-fluorophenyl)-N-methylacrylamide] | 78 | 37 |
